Columns and labels:
[1] = tested on: GST-p12_M63I phosphorylation in 293T cells; experiment: Kinase inhibition, GST-p12_M63I phosphorylation (PQ/SR); assay type: cell-based; details: 3.5 h with nocodazole and 10 μM MG132, LiCl 40 mM, roscovitine 75 μM, kenpaullone 40 μM
Description: (§1) Glycogen synthase kinase 3 (GSK3) and cyclin-dependent kinase 5 (CDK5) were predicted to phosphorylate Mo-MLV p12 on S61, by the NetPhos 3.1 kinase prediction algorithm. […] These drugs were tested in our biochemical assays for their ability to reduce GST-p12_M63I phosphorylation and chromatin association. In our assays, cells transiently-expressing GST-p12_M63I were cultured in media containing nocodazole overnight, prior to the addition of the kinase inhibitors. […] After removal of the drugs, cells were immediately washed and lysed for glutathione-sepharose bead pull-down assays. The eluates from the beads were analysed by SDS-PAGE followed by sequential staining with PQ and SR dyes to quantify the phosphorylation levels of GST-p12_M63I. LiCl treatment had little effect on GST-p12_M63I phosphorylation (Fig 7A, lane 2). […] To correlate GST-p12_M63I phosphorylation with its ability to interact with chromatin, we quantified the amounts of H2B in the pull-down eluates by immunoblotting. […] The short period of kinase inhibition used in our assays, may have limited the effects observed on GST-p12_M63I phosphorylation.
(§2) GST-p12 proteins were expressed in 293T cells from pCAGGS/GST-derived plasmids by transient transfection using Turbofect (Thermo Fisher Scientific). Approximately 24 h after transfection, cells were changed into fresh media containing either 400 ng/ml nocodazole (Sigma) or 2 μg/ml aphidicolin (Sigma) and incubated overnight at 37°C. The synchronisation of the cell cultures after drug treatment was assessed by propidium iodide staining and cell cycle phase analysis by flow cytometry. Cells to be used in pull down assays were washed and lysed in 20 mM Tris pH 8.0, 300 mM NaCl, 1 mM EDTA, 10% Glycerol, 1% Triton X-100, protease inhibitors (Roche), phosphatase inhibitors (Merck). Lysis was facilitated by passing the lysates through a 19-gauge needle x7 and sonication, x7 pulses, 30 s ON and 30 s OFF, in an ice bath (Decon FS100). […] ProQ diamond and Sypro ruby staining (Thermo Fisher Scientific) of gels was visualised and quantified on a ChemiDoc imaging system (Bio-Rad). […]

[2] = tested on: H2B precipitation with GST-p12_M63I, 293T cells; experiment: Kinase inhibition, H2B pull-down with GST-p12_M63I; assay type: cell-based; details: 3.5 h with nocodazole and 10 μM MG132; roscovitine 75 μM, kenpaullone 40 μM; immunoblot
Description: as §1, §2

[3] = tested on: cyclin-dependent kinase 5 (CDK5); set-up: method as in PMID 12534346; details: cited from earlier work
[4] = tested on: Glycogen synthase kinase 3 (GSK3); details: cited from earlier work
[5] = target: T1, recombinant H3.3 poly-nucleosomes (Homo sapiens, UniProt P62807+P84243+Q93077); experiment: Biolayer interferometry, peptide binding to poly-nucleosomes; details: BLI; biotinylated peptide on streptavidin sensor; HEPES pH 7.5, 150 mM NaCl, 25°C
T1 construct: purchased Active Motif
Source text: To identify whether p12 proteins also interact directly with nucleosomes, we used biolayer interferometry (BLI) to probe the binding of recombinant poly-nucleosomal arrays by p12 CTD peptides (Fig 9). Streptavidin sensor probes coated with biotinylated peptide ligands were immersed in ‘analyte’ solutions containing the in vitro assembled nucleosomal arrays to observe any potential interactions. The p12 CTD peptide sequences used are highlighted in bold in Fig 5C. A peptide carrying the PFV hCBS sequence was included in the assays as a positive control.
The binding of PFV hCBS and p12 CTD peptides to recombinant H3.3 poly-nucleosomes (Active Motif) was measured using biolayer interferometry on an Octet RED system (Pall ForteBio Corp). The peptides were synthesised with a N-terminal biotin tag and GGGG linker. The Mo-MLV, FeLV and GaLV p12 CTD peptide sequences used are highlighted in bold in Fig 5C. A negative control was included that contained an R66A change in the Mo-MLV p12_M63I CTD peptide. Mo-MLV phos p12_M63I CTD was also synthesised with a phosphorylated S61 residue. […] Equilibrium binding amplitudes were determined by exponential least squares curve fitting of the association phase. […] Equilibrium binding constant (Kd) and maximum specific binding (Bmax) were calculated by fitting the data to a non-linear regression model. […]

[6] = tested on: nucleosome binding to immobilised biotinylated hCBS; experiment: BLI competition, nucleosome binding to immobilised hCBS; details: soluble peptide 100 μM; three technical replicates
Description: A negative control was included that contained an R66A change in the Mo-MLV p12_M63I CTD peptide. […] The biotinylated peptides were loaded onto streptavidin biosensors (Pall ForteBio Corp) at 0.5 μg/ml for 120 s in 10 mM HEPES pH 7.5, 150 mM NaCl, 0.005% (v/v) Tween 20. […] Experiments were performed at 25°C and sample plates were agitated at 1000 rpm. […] For competition assays, soluble non-biotin tagged peptides were added to the nucleosomal arrays at 100 μM to inhibit nucleosome binding prior to recording BLI measurements with biotinylated peptide immobilised on sensor probes.

nucleosomes = details: cited from earlier work
Source text: To identify whether p12 binds to the same nucleosomal docking site as the CBS from PFV Gag, we then tested the ability of p12 CTD peptides to block the binding of nucleosomal arrays to hCBS and vice versa (Fig 9E and 9F).

## O=C1Cc2c([nH]c3ccc(Br)cc23)-c2ccccc2N1 [kenpaullone]
[1]
  reduction of GST-p12_M63I phosphorylation by kinase inhibitor: ~ 3 fold
[2]
  reduction of H2B precipitation by kinase inhibitor: ~ 3.5 fold
[3]
  inhibition of CDK5: inhibits both enzymes
[4]
  inhibition of GSK3: inhibits both enzymes

## CC[C@H](C)[C@H](NC(=O)[C@@H]1CCCN1C(=O)[C@H](CO)NC(=O)[C@@H]1CCCN1C(=O)[C@H](CC(=O)O)NC(=O)CNC(=O)CNC(=O)CNC(=O)CNC(=O)CCCC[C@@H]1SC[C@@H]2NC(=O)N[C@@H]21)C(=O)N[C@@H](C)C(=O)N[C@@H](CO)C(=O)N[C@@H](CCCNC(=N)N)C(=O)N[C@@H](CC(C)C)C(=O)N[C@@H](CCCNC(=N)N)C(=O)NCC(=O)N[C@@H](CCCNC(=N)N)C(=O)N[C@@H](CCCNC(=N)N)C(=O)N[C@@H](CCC(=O)O)C(=O)N1CCC[C@H]1C(=O)N1CCC[C@H]1C(=O)N[C@H](C(=O)O)C(C)C [non-phosphorylated p12_M63I]
[5]
  binding to nucleosomal arrays: clear binding to nucleosomes

## CC[C@H](C)[C@H](NC(=O)[C@@H]1CCCN1C(=O)[C@H](COP(=O)(O)O)NC(=O)[C@@H]1CCCN1C(=O)[C@H](CC(=O)O)NC(=O)CNC(=O)CNC(=O)CNC(=O)CNC(=O)CCCC[C@@H]1SC[C@@H]2NC(=O)N[C@@H]21)C(=O)N[C@@H](C)C(=O)N[C@@H](CO)C(=O)N[C@@H](CCCNC(=N)N)C(=O)N[C@@H](CC(C)C)C(=O)N[C@@H](CCCNC(=N)N)C(=O)NCC(=O)N[C@@H](CCCNC(=N)N)C(=O)N[C@@H](CCCNC(=N)N)C(=O)N[C@@H](CCC(=O)O)C(=O)N1CCC[C@H]1C(=O)N1CCC[C@H]1C(=O)N[C@H](C(=O)O)C(C)C [phosphorylated p12_M63I]
[5]
  binding to nucleosomal arrays: clear binding to nucleosomes

## DPSPMASALRGRREPPY [p12_R66A, soluble Mo-MLV p12 CTD peptide with R66A]
[6]
  decrease of equilibrium binding of nucleosomes to immobilised hCBS: not hCBS_L539A/R540A or p12_R66A peptides

## NQGGYNAAPRTYQP [hCBS_L539A/R540A, hCBS peptide with L539A/R540A mutations, reference compound]
[6]
  decrease of equilibrium binding of nucleosomes to immobilised hCBS: not hCBS_L539A/R540A or p12_R66A peptides
nucleosomes
  binding of hCBS peptides to nucleosomes: prevent binding of hCBS peptides to nucleosomes
